From patent US6867320B2, “Substituted phenylalkanoic acid derivatives and use thereof” (Asahi Kasei Pharma Corporation, priority 2002, dated 2005)

Legend:
[1] = test system: zymosan-stimulated footpad edema; experiment: Mouse zymosan-stimulated footpad edema reaction; format: in vivo; details: ICR female mice, oral 0.1 to 500 mg/kg, compared with positive control group
Outline: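 Female ICR mice (6–7 weeks, n=8) dosed orally at 0.1 to 500 mg/kg in 0.5% methylcellulose; 1 h later zymosan (1 mg/ml, 0.02 ml) injected s.c. into right hind footpad. Edema volume at 1 and 2 h gave AUC to 2 h; suppression (%) calculated against positive control AUC.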

[2] = test system: PGE2 production from IL-1β-stimulated MG-63 cells; experiment: Suppressing action on PGE2 production from IL-1β-stimulated MG-63 cells; format: cell-based; details: Homo sapiens, IL-1β 1 ng/ml, 18 hours, read-out: PGE2 production suppression ratio
Outline: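 Human osteosarcoma MG-63 cells (2×10^4/well) switched to 0.5% FBS medium, treated with compound, then stimulated with IL-1β at 1 ng/ml final for 18 h. Supernatant PGE2 measured by EIA; suppression ratio calculated against stimulated and unstimulated wells.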

[3] = test system: IgE-stimulated footpad edema; experiment: Mouse IgE-stimulated footpad edema reaction; format: in vivo; details: C57BL/6 male mice, oral 0.1 to 500 mg/kg, compared with positive control group
Description: 4. Suppressing Effect on Mouse IgE-stimulated Footpad Edema Reaction
Suppression on footpad edema caused by IgE antibody as an allergic stimulant was studied by the following method. Groups of C57BL/6 male mice (9- to 11-week old) each consisting of five mice were used for the test. Anti-DNP-BSA IgE serum was subcutaneously administered in a volume of 20 μl to right hind leg footpad of each mouse one day before the test. A test compound was suspended or dissolved in purified water containing 0.5% methylcellulose and orally administered to the test animals at 0.1 to 500 mg/0.2 ml/kg. To the control group, purified water containing 0.5% methylcellulose was administered in a similar manner, which was not added with the test compound. Two hours after the administration of the test compound, 0.2 ml of a solution of DNP-BSA dissolved in physiological saline (Otsuka Pharmaceutical) at 2.5 μg/ml was intravenously administered. The thickness of right hind leg footpad was measured by using a digital thickness gauge (MITSUTOYO) 10, 15, 20, and 30 minutes after the administration of DNP-BSA. A difference of the thickness of footpad measured above and the thickness before the administration of the test compound measured beforehand was regarded as a thickness of edema.
For the thickness of the edema at 10, 15, 20 and 30 minutes after the DNP-BSA administration, a graph was prepared indicating time in abscissa and the edema thickness in ordinate, and edema thickness AUC […] was obtained by calculation according to the following equation. Edema thickness AUC (mm·minute)=1/2×10×A+5×(A+B)/2+5×(B+C)/2+10×(C+D)/2 • A: Edema thickness 10 minutes after DNP-BSA administration • B: Edema thickness 15 minutes after DNP-BSA administration • C: Edema thickness 20 minutes after DNP-BSA administration • D: Edema thickness 30 minutes after DNP-BSA administration
A suppressing ratio on edema of a test compound was obtained by calculation in accordance with the following equation. Edema suppression ratio (%)=[1−B/A]×100 • A: Edema thickness AUC of positive control • B: Edema thickness AUC of test compound administered group (2) Measurement Results

SMILES	suppression of footpad edema caused by zymosan [1]	inhibition at 0.4 µM [2] [%]	suppression of footpad edema caused by IgE stimulation [3]
O=C(O)CCc1ccc(OCc2cccc(F)c2)c(-c2ccc3ccccc3c2)c1 [Compound 033, 3-[4-(3-fluorophenylmethyloxy)-3-(naphthalen-2-yl)phenyl]propionic acid]	suppressed footpad edema	≥ 50	suppressed the footpad edema
O=C(O)CCc1ccc(OCCc2ccccc2)c(-c2ccc3ccccc3c2)c1 [Compound 051, 3-[3-(naphthalen-2-yl)-4-(2-phenylethyloxy)phenyl]propionic acid]		≥ 50	suppressed the footpad edema
O=C(O)CCc1ccc(OCCc2cccc(F)c2)c(-c2ccc3ccccc3c2)c1 [Compound 055, 3-{4-[2-(3-fluorophenyl)ethyloxy]-3-(naphthalen-2-yl)phenyl}propionic acid]	suppressed footpad edema	≥ 50	suppressed the footpad edema
O=C(O)CCc1ccc(OCCc2ccc(F)cc2)c(-c2ccc3ccccc3c2)c1 [Compound 057, 3-{4-[2-(4-fluorophenyl)ethyloxy]-3-(naphthalen-2-yl)phenyl}propionic acid]	suppressed footpad edema	≥ 50	suppressed the footpad edema
O=C(O)CCc1ccc(OCC2CCCCC2)c(-c2cccc3[nH]ccc23)c1 [Compound 116, 3-[4-cyclohexylmethyloxy-3-(1H-indol-4-yl)phenyl]propionic acid]	suppressed footpad edema	≥ 50	suppressed the footpad edema
Cn1ccc2c(-c3cc(CCC(=O)O)ccc3OC3CCCCC3)cccc21 [Compound 126, 3-[4-cyclohexyloxy-3-(1-methyl-1H-indol-4-yl)phenyl]propionic acid]	suppressed footpad edema	≥ 50	suppressed the footpad edema
O=C(O)CCc1ccc(OCc2ccccc2-c2ccccc2)c(-c2ccc3[nH]ccc3c2)c1 [Compound 140, 3-{4-[(biphenyl-2-yl)methyloxy]-3-(1H-indol-5-yl)phenyl}propionic acid]	suppressed footpad edema	≥ 50	suppressed the footpad edema
O=C(O)CCc1ccc(OCc2ccc(F)cc2F)c(-c2ccc3[nH]ccc3c2)c1 [Compound 156, 3-[4-(2,4-difluorophenylmethyloxy)-3-(1H-indol-5-yl)phenyl]propionic acid]		≥ 50	suppressed the footpad edema
O=C(O)CCc1ccc(OCc2ccc(F)c(F)c2)c(-c2ccc3[nH]ccc3c2)c1 [Compound 158, 3-[4-(3,4-difluorophenylmethyloxy)-3-(1H-indol-5-yl)phenyl]propionic acid]		≥ 50	suppressed the footpad edema
O=C(O)CCc1ccc(OCc2ccc(Br)cc2F)c(-c2ccc3[nH]ccc3c2)c1 [Compound 168]	suppressed footpad edema		suppressed the footpad edema
CCC(CC)COc1ccc(CCC(=O)O)cc1-c1ccc2[nH]ccc2c1 [Compound 183, 3-[4-(2-ethylbutyloxy)-3-(1H-indol-5-yl)phenyl]propionic acid]	suppressed footpad edema	≥ 50	suppressed the footpad edema
O=C(O)CCc1ccc(OCc2ccc3ccccc3c2)c(-c2ccc3[nH]ccc3c2)c1 [Compound 192, 3-{3-(1H-indol-5-yl)-4-[(Naphthalen-2-yl)methyloxy]phenyl}propionic acid]		≥ 50	suppressed the footpad edema
Cc1ccccc1CCOc1ccc(CCC(=O)O)cc1-c1ccc2[nH]ccc2c1 [Compound 200, 3-{3-(1H-indol-5-yl)-4-[2-(2-methylphenyl)ethyloxy]phenyl}propionic acid]	suppressed footpad edema	≥ 50	suppressed the footpad edema
Cc1cccc(CCOc2ccc(CCC(=O)O)cc2-c2ccc3[nH]ccc3c2)c1 [Compound 202, 3-{3-(1H-indol-5-yl)-4-[2-(3-methylphenyl)ethyloxy]phenyl}propionic acid]	suppressed footpad edema	≥ 50	suppressed the footpad edema
COc1ccccc1CCOc1ccc(CCC(=O)O)cc1-c1ccc2[nH]ccc2c1 [Compound 205, 3-{3-(1H-indol-5-yl)-4-[2-(2-methoxyphenyl)ethyloxy]phenyl}propionic acid]	suppressed footpad edema	≥ 50	suppressed the footpad edema
O=C(O)CCc1ccc(OCCc2ccccc2Cl)c(-c2ccc3[nH]ccc3c2)c1 [Compound 209, 3-{4-[2-(2-chlorophenyl)ethyloxy]-3-(1H-indol-5-yl)phenyl}propionic acid]	suppressed footpad edema	≥ 50	suppressed the footpad edema
O=C(O)CCc1ccc(OCCc2ccc(Cl)cc2)c(-c2ccc3[nH]ccc3c2)c1 [Compound 213, 3-{4-[2-(4-chlorophenyl)ethyloxy]-3-(1H-indol-5-yl)phenyl}propionic acid]		≥ 50	suppressed the footpad edema
O=C(O)CCc1ccc(OCCOc2ccc(Cl)cc2)c(-c2ccc3[nH]ccc3c2)c1 [Compound 226, 3-{4-[2-(4-chlorophenyloxy)ethyloxy]-3-(1H-indol-5-yl)phenyl}propionic acid]	suppressed footpad edema	≥ 50	suppressed the footpad edema
O=C(O)CCc1ccc(OCCSc2ccccc2)c(-c2ccc3[nH]ccc3c2)c1 [Compound 228, 3-{3-(1H-indol-5-yl)-4-[2-(phenylthio)ethyloxy]phenyl}propionic acid]	suppressed footpad edema	≥ 50	suppressed the footpad edema
Nc1cc(CCC(=O)O)cc(-c2ccc3[nH]ccc3c2)c1OCC1CCCC1 [Compound 266, 3-[3-amino-4-cyclopentylmethyloxy-5-(1H-indol-5-yl)phenyl]propionic acid]		≥ 50	suppressed the footpad edema
O=C(O)CCc1ccc(OCc2ccccc2)c(-c2ccc3[nH]ccc3c2)c1 [Compound 325, 3-[4-benzyloxy-3-(1H-indol-5-yl)phenyl]propionic acid]		≥ 50	suppressed the footpad edema
